The source of these data is patent US11975111B2, “Dactinomycin compositions and methods for the treatment of myelodysplastic syndrome and acute myeloid leukemia” (Tiziana Life Sciences PLC, priority 2016, dated 2024).

*1 amine or outer side, *2 acyl side, *3 side chain or, on linkers, in order; H or OH if unused. Where a SMILES comes first, the peptide text is derived from it. Bridges are numbered along the chain shown (N, C = ends). Roman numbers before positions name the chains, in order. [ ]: non-standard residue; d: D form. Actinocin(9to1) = Cc1c2oc3c(C)ccc(C(=O)[*:1])c3nc-2c(C(=O)[*:2])c(N)c1=O; NMeV = CN[CH](C(=O)O)C(C)C; Sar = CNCC(=O)O

The subject of series [1] is NPM1-mutated cell line OCI/AML3. Briefly: Act-D induced nucleolar disintegration and apoptosis (NPM1/DAPI photographs). It is filed as cell-based. As to conditions: OCI/AML3, FIG. 3. The text has this: NPM1=Nucleophosmin and DAPI=4′,6-diamidino-2-phenylindole—a fluorescent stain that binds strongly to A-T rich regions in DNA.
A further series concerns p53. Briefly: Western blots of p53 activation in patient tumor cells. It is filed as cell-based, human. As to conditions: NPM1-mutated AML tumor cells contacted in vitro or in vivo, 2 cycles of 5 consecutive days at 12.5 μg/kg. (In general: In western blotting, separated proteins are transferred to a membrane and probed.)
The next series deals with NPM1-mutated AML. In words: Treatment of AML patients with dactinomycin alone or with low-dose cytarabine. Format: in vivo, human. The procedure: FIG. 5 is a chart showing sequencing by the TruSight Myeloid Panel.—mutated genes (*).
FIG. 7 is a photograph of a computerized tomography (CT) scan showing pneumonitis in a subject administered dactinomycin at 15 μg/kg for 5 days.
FIGS. 9A and B are a pair of photographs depicting a bone marrow (BM) examination before and after therapy with dactinomycin alone.
Complete blood count (CBC) d=46, white blood cell 4130/mm^3, neutrophil percent (N=66%), hemoglobin (Hb)=7.7 g/dL, platelet (PLT) count 192.000/mm^3. Erythropoietin (EPO) dosage=17.8 mUl/ml (inappropriate response). Patient started on Darbopoetina.
Dactinomycin compositions of the disclosure may be administered with FLT3 inhibitors. […] There are two types of FLT3 mutations: internal tandem duplications (ITD) near the juxtamembrane domain of the receptor and point mutations in the activation loop of the tyrosine kinase domain (TKD mutations). TKD mutations comprise approximately 7% of patients, while ITD mutations are less prevalent in pediatrics and AML patients who were previously categorized as having MDS. (Fathi, A. T. et al. Eur. J. Haematol. 2017, 98: 330-336.)

The nature of series [2]: Tolerability in rats, 0.5 mg/kg IV, body weight. To be noted: over 7 days post treatment. It is filed as in vivo. As to the method: (§1) Free and formulated actinomycin D (0.5 mg/kg) was administered via IV
(§2) In another experiment, rats were also administered a single dose (0.5 mg/kg) of free and formulated Act D via IV (intravenous) injection.

Series [3] in a line: Plasma dactinomycin (CMAX, 6 hr) in rat tolerability study, 0.5 mg/kg IV. It is filed as in vivo. To be noted: rats, comparison in words. The procedure: as §1, §2
Series [4] is described as follows: Pharmacokinetics in rats, single dose 0.3 mg/kg IV. Format: in vivo. The procedure: Rats administered single dose (0.3 mg/kg) of unformulated and formulated Actinomycin D via IV injection. (FIG. 31)
Processed plasma samples at indicated times extracted in mixture of methanol and formic acid to determine total (free and encapsulated) API in systemic circulation.

Series [5] in a line: Single dose intravenous tolerability in rats, 900 μg/kg. It is filed as in vivo, Female Sprague Dawley rats. As to conditions: for clinical observations, signs of toxicity: post-dose observation. The procedure:
A side by side comparison of the tolerability of free actinomycin D (i.e., not in a nanoparticle) and four compositions comprising actinomycin D nanoparticles (NP-ActD) formulations in rats when dosed by intravenous administration.
Female Sprague Dawley rats (HSd:SD), 6-8 weeks and 150-175 g at dosing were used for these studies. This is a single dose study with observations for 14 days post-dose. On day 1 of the study, each animal received either 900 μg/kg of the free actinomycin D or a NP-ActD formulations (900 μg/kg of the active) in a fixed volume of 1 mL/kg according to the study design in the Table below.
The following parameters were monitored: clinical observations daily, mortality, body weights, and food consumption. A full necropsy will be conducted on Day 14 post-dose, at which time organ weights and macroscopic findings will be determined. The organs will be preserved for future histology and the lungs, liver, pancreas, spleen, brain and kidneys will be frozen in liquid nitrogen for measurement of actinomycin D/NP-ActD accumulation.
Blood was collected for pharmacokinetic evaluation following dosing on Day 1 at 0.083, 0.25, 0.5, 1, 2, 6, and 24 hours post dose. Serum samples will be collected for clinical chemistry and whole blood samples for hematology.

The conditions of series [6]: cited from earlier work.

Take `Cc1c2oc3c(C)ccc(C(=O)NC4C(=O)NC(C(C)C)C(=O)N5CCCC5C(=O)N(C)CC(=O)N(C)C(C(C)C)C(=O)OC4C)c3nc-2c(C(=O)NC2C(=O)NC(C(C)C)C(=O)N3CCCC3C(=O)N(C)CC(=O)N(C)C(C(C)C)C(=O)OC2C)c(N)c1=O` (stereo not drawn) [dactinomycin, 2-amino-N,N′-bis(hexadecahydro-2,5,9-trimethyl-6,13-bis(1-methylethyl)-1,4,7,11,14-pentaoxo-1H-pyrrolo(2,1-I)(1,4,7,10,13)oxatetra-azacyclohexadecin-10-yl)-4,6-dimethyl-3-oxo-3H-phenoxazine-1,9-dicarboxamide] (I: TVP[Sar][NMeV] / II: TVP[Sar][NMeV]; ester I:1-I:C, II:1-II:C; linker I:N-II:N via Actinocin(9to1); configuration not given here): the “nucleolar disintegration and apoptosis” value in series [1] was “induced nucleolar disintegration and apoptosis”. In the series with p53, the “p53 activation (Western blot)” value is “p53 activation”. In addition, in the series with NPM1-mutated AML (Patient, FIG. 5), the “mutated genes by TruSight Myeloid Panel sequencing after treatment” value was “NMP1, IDH2 and STAG2 mutations not detected”. The “bone marrow (BM) examination after therapy” value with NPM1-mutated AML (before and after therapy) is given as “marked reduction of leukemic blast infiltration with partial normal hematopoietic recovery”. The “efficacy in clinical trials” value with NPM1-mutated AML (clinical trials, AML patients) is listed as “about 60 % of the patients treated”. In addition, in the series on NPM1-mutated AML (following one cycle of treatment, FIG. 8), the hematological recovery entry is “hematological recovery”. The CT scan finding entry in the series with NPM1-mutated AML (subject administered 15 μg/kg for 5 days) was “pneumonitis”. The figures for the body weight result in series [2] (listed as free API), in series [2] (listed as free dactinomycin) and in series [2] (listed as unformulated API) were “significant decrease in body weight”, “significant decrease in body weight” and “adverse effect on body weight”, respectively. Also, the “CMAX, total (free and encapsulated) dactinomycin in plasma” value in series [3] was “lower”. Also, the “Theoretical Cmax in Humans” value in series [4] (extrapolated to humans) is 7.5 ng/mL. The same compound registered a peak concentration (Cmax) in series [4] (rat, plasma, 0.3 mg/kg, rats, IV) of 60 ng/mL. The mortality rate entry in series [5] (13 days post-dose) was “about 80%”. Further, the additional animals euthanized entry in series [5] (Day 7 post dose, 6 rats per group) is “two”. For the same compound, the more animals euthanized entry in series [5] (Day 9, 6 rats per group) is “two”. Moreover, the “animals moribund and euthanized” value in series [5] (day 6 post-dose, 6 rats per group) amounted to 1 animal. The body weights entry in series [5] (rats, 900 μg/kg IV single dose, FIG. 32) is “consistently decreased body weights”. The “clinical observations, signs of toxicity” value is “piloerection, decreased activity, bleeding at the nares, and hunched posture” in series [5] (rats, 900 μg/kg IV single dose, listed as free Act D); “piloerection and discolored urine” in series [5] (rats, 900 μg/kg IV single dose, listed as free ActD). The animals remained in series [5] (thirteen days post-dose) is 1/6. For the same compound, the “AUC0-6 hrs in patients showing adverse events” value in series [6] (patients showing adverse events, IV 1 mg/m^2 or 1.5 mg/m^2) was 4 mg·min/L. The “AUC0-6 hrs, patients with adverse events versus without” value in series [6] (ratio) is listed as 1.46 times higher. Besides, the “AUC0-6 hrs in subjects not showing adverse events” value in series [6] (subjects not showing adverse events, IV 1 mg/m^2 or 1.5 mg/m^2) is 2.67 mg·min/L.

Usually Cmax stands for the peak of the concentration-time curve.
